US3933853A, “Indole derivatives” (Clin Midy, priority 1972, dated 1976)
Where two headings read alike, the source gives them in different places.

Experiments:
[1] = tested on: visceral pain in the mouse; assay: Analgesic effect, Koster and Anderson test (visceral pain induced by intraperitoneal acetic acid); assay type: in vivo; settings: oral, 30 minutes before acetic acid injection, read-out: ED50 (50% effective dose reducing by one half the number of symptoms of pain)
Description: A visceral pain is induced in the mouse by intraperitonal injection of a dilute solution of acetic acid (Koster and Anderson test).
The animals, which are starved on the day before the experiment, and separated into random batches of five, are treated with the products under test 30 minutes before injection of the irritant. Treatment was always performed orally.
After the acetic solution is injected the animals show symptoms of pain (stretching of the abdomen with extension of the back feet) which are counted during two spells of five minutes for each lot: from the fifth to the tenth minute and from the fifteen to the twentieth minute respectively after the acid is injected.
The ED50 value is expressed in mg per kg bodyweight.
These doses were obtained by oral administration of the products of the invention.

central nervous system = assay: Tranquillising effect, exploration test (perforated board); assay type: in vivo; settings: mouse, oral route
Description: Exploration test (perforated board): the number of holes explored by an animal (mouse) which has unrestricted movement and is placed on the board for the first time, are recorded.

Acute toxicity (LD50) = settings: in vivo, mouse
From the text: Moreover, the compounds of the present invention are not, in general, very toxic.
Toxicity, expressed in mg/kg bodyweight, is given below for certain other compounds when administered by the sub-cutaneous route and by the oral route.

[2] = sc, sub-cutaneous route, read-out: LD50 / toxicity, sub-cutaneous
[3] = oral route, read-out: LD50 / toxicity, oral

Structure (SMILES) | ED50 [1] | ED50 (central nervous system) | LD50 (Acute toxicity (LD50); [2]) | LD50 (Acute toxicity (LD50); [3])
CC(=O)Cc1cn(CCN(C)C)c2ccccc12 [compound 5353] | 1.5 mg/kg | 5 mg/kg |  | 
CC(Cc1cn(CCN(C)C)c2ccccc12)=NO [compound 5354] | 3 mg/kg |  |  | 
CC(Cc1cn(CCN(C)C)c2ccccc12)=NOCCN(C)C [compound 5444] | 6.25 to 12.5 mg/kg |  |  | 
CC(=O)ON=C(C)Cc1cn(CCN(C)C)c2ccccc12 [compound 5472] | 0.75 to 1.5 mg/kg | 5 mg/kg | 400 mg/kg | 200 mg/kg
CCC(=O)ON=C(C)Cc1cn(CCN(C)C)c2ccccc12 [compound 5473] | 0.75 to 1.5 mg/kg |  | 200 to 400 mg/kg | > 400 mg/kg
CCN(CC)CCn1cc(CC(C)=O)c2ccccc21 [compound 5477] |  |  | 200 mg/kg | 400 mg/kg
CC(O)Cc1cn(CCN(C)C)c2ccccc12 (centres unmarked) [compound 5607] | 0.75 mg/kg |  | 800 mg/kg | > 800 mg/kg
CCN(CC)CCn1cc(CC(C)O)c2ccccc21 (centres unmarked) [compound 5938] | 1.5 mg/kg |  |  | 
COc1ccc(-n2cc(CC(C)O)c3ccccc32)cc1 (centres unmarked) [compound 5992] |  | 1 mg/kg | > 400 mg/kg | > 400 mg/kg
